In brackets after ≈: the same amount, converted by molar mass.
What was measured:
Kinetic solubility = assay type: physicochemical; conditions: Dulbecco's phosphate buffer saline (DPBS), aqueous buffer, kinetic from dmso stock, DPBS pH 7.4, 25° C., 200 μM test compound
Description: Example 144. Kinetic Solubility
10 μL of 10 mM DMSO stock solution were aliquotted to 490 μL of DMSO solution and separately 490 μL of Dulbecco's phosphate buffer saline, DPBS, pH 7.4 solution in 1.2 mL 96-well plates in duplicate. Final concentration was 200 μM of the test compound. Samples were incubated at 25° C. with shaking at 200 rpm for 16 h. Samples were centrifuged at 3500 rpm for 20 min at 25° C., and supernatant was submitted for HPLC analysis.
Kinetic solubility was measured using the following equation: […]

[1] = system: Human Heme Oxygenase-1 (HMOX-1); experiment: ELISA assay to measure human heme oxygenase-1 (HMOX-1) in HepG2 lysate; assay type: cell-based; conditions: human HMOX1 protein level in HepG2 lysate; * = average of 2 or more EC50 determinations; NA = Not Active; read-out: EC50
In short: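 Treated HepG2 cells were lysed in PBS with 0.5% Triton X100, 1 mM EDTA and protease inhibitors, and lysates were diluted 1:20. HO-1 was measured by sandwich ELISA (biotinylated detection antibody, streptavidin-HRP, chemiluminescence) at room temperature against a standard curve from 20 ng/ml. EC50 and fold change were expressed relative to DMSO control.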

Row | SMILES | solubility at 16 h (Kinetic solubility) | EC50 [1]
1 | COCCNC(=O)c1ccc2c(c1)nc(Nc1nc3ccc(OCCO)cc3o1)n2C [Example 102, 2-((6-(2-hydroxyethoxy)benzo[d]oxazol-2-yl)amino)-N-(2-methoxyethyl)-1-methyl-1H-benzo[d]imidazole-5-carboxamide] | 5.3 µM (≈ 2.25 µg/mL) | 1.3 µM
2 | Cn1c(Nc2nc3ccc(OC(F)F)cc3o2)nc2cc(C(=O)NCCO)ccc21 [Example 64, 2-((6-(difluoromethoxy)benzo[d]oxazol-2-yl)amino)-N-(2-hydroxyethyl)-1-methyl-1H-benzo[d]imidazole-5-carboxamide] | 2 µM (≈ 0.835 µg/mL) | 1.8 µM
3 | Cn1c(Nc2nc3ccc(OC(F)(F)F)cc3o2)nc2cc(C(=O)NC(CO)CO)ccc21 [Example 48, N-(1,3-dihydroxypropan-2-yl)-1-methyl-2-((6-(trifluoromethoxy)benzo[d]oxazol-2-yl)amino)-1H-benzo[d]imidazole-5-carboxamide] | 3.9 µM (≈ 1.82 µg/mL) | 2 µM
4 | COCCNC(=O)c1ccc2c(c1)nc(Nc1nc3ccc(OC(F)(F)F)cc3o1)n2CC1(O)COC1 [Example 94, 1-((3-hydroxyoxetan-3-yl)methyl)-N-(2-methoxyethyl)-2-((6-(trifluoromethoxy)benzo[d]oxazol-2-yl)amino)-1H-benzo[d]imidazole-5-carboxamide] | 0.3 µM (≈ 0.156 µg/mL) | 1.3 µM
5 | COCCNC(=O)c1ccc2c(c1)nc(Nc1nc3cc(F)ccc3o1)n2C [Example 67, 2-((5-fluorobenzo[d]oxazol-2-yl)amino)-N-(2-methoxyethyl)-1-methyl-1H-benzo[d]imidazole-5-carboxamide] | < 5 µM | 0.91 µM
6 | CC(O)CNC(=O)c1ccc2c(c1)nc(Nc1nc3ccc(C(F)(F)F)cc3o1)n2C (centres unmarked) [Example 35, N-(2-hydroxypropyl)-1-methyl-2-((6-(trifluoromethyl)benzo[d]oxazol-2-yl)amino)-1H-benzo[d]imidazole-5-carboxamide] | < 2 µM | 1.2 µM
7 | Cn1c(Nc2nc3cc(C(F)(F)F)ccc3o2)nc2cc(C(=O)NCCOCCO)ccc21 [Example 43, N-(2-(2-hydroxyethoxy)ethyl)-1-methyl-2-((5-(trifluoromethyl)benzo[d]oxazol-2-yl)amino)-1H-benzo[d]imidazole-5-carboxamide] | 8 µM (≈ 3.71 µg/mL) | 1.3 µM
8 | COCCNC(=O)c1ccc2c(c1)nc(Nc1nc3ccc(OCC(F)(F)F)cc3o1)n2C [Example 99, N-(2-methoxyethyl)-1-methyl-2-((6-(2,2,2-trifluoroethoxy)benzo[d]oxazol-2-yl)amino)-1H-benzo[d]imidazole-5-carboxamide] | 0.4 µM (≈ 0.185 µg/mL) | 0.92 µM
9 | Cn1c(Nc2nc3ccc(OC(F)(F)F)cc3o2)nc2cc(C(=O)Nc3cn[nH]c3)ccc21 [Example 46, 1-methyl-N-(1H-pyrazol-4-yl)-2-((6-(trifluoromethoxy)benzo[d]oxazol-2-yl)amino)-1H-benzo[d]imidazole-5-carboxamide] | < 5 µM | 2.2 µM
10 | COCCNC(=O)c1ccc2c(c1)nc(Nc1nc3cccnc3o1)n2C [Example 109, N-(2-methoxyethyl)-1-methyl-2-(oxazolo[5,4-b]pyridin-2-ylamino)-1H-benzo[d]imidazole-5-carboxamide] | 7.4 µM (≈ 2.71 µg/mL) | 6.1 µM
11 | Cn1c(Nc2nc3ccc(OC(F)(F)F)cc3o2)nc2cc(C(=O)NC(CO)(CO)CO)ccc21 [Example 47, N-(1,3-dihydroxy-2-(hydroxymethyl)propan-2-yl)-1-methyl-2-((6-(trifluoromethoxy)benzo[d]oxazol-2-yl)amino)-1H-benzo[d]imidazole-5-carboxamide] | < 2 µM | 1.6 µM
12 | CC(C)C(N)C(=O)OCCOCCNC(=O)c1ccc2c(c1)nc(Nc1nc3ccccc3o1)n2C.Cl (racemic) [Example 30, 2-(2-(2-(benzo[d]oxazol-2-ylamino)-1-methyl-1H-benzo[d]imidazole-5-carboxamido)ethoxy)ethyl DL-valinate hydrochloride] | 3.2 µM | 3.5 µM
13 | Cn1c(Nc2nc3ccc(OC(F)(F)F)cc3o2)nc2cc(C(=O)NCC3(O)COC3)ccc21 [Example 52, N-((3-hydroxyoxetan-3-yl)methyl)-1-methyl-2-((6-(trifluoromethoxy)benzo[d]oxazol-2-yl)amino)-1H-benzo[d]imidazole-5-carboxamide] | < 2 µM | 1 µM
14 | COCCNC(=O)c1ccc2c(c1)nc(Nc1nc3ccc(OC(F)(F)F)cc3o1)n2C [Example 45, N-(2-methoxyethyl)-1-methyl-2-((6-(trifluoromethoxy)benzo[d]oxazol-2-yl)amino)-1H-benzo[d]imidazole-5-carboxamide] | 0.2 µM (≈ 0.0899 µg/mL) | 0.64 µM
15 | Cn1c(Nc2nc3ccc(Br)cc3o2)nc2cc(C(=O)O)ccc21 [Example 91, 2-((6-bromobenzo[d]oxazol-2-yl)amino)-1-methyl-1H-benzo[d]imidazole-5-carboxylic acid] | 2.6 µM (≈ 1.01 µg/mL) | 2.5 µM

The remaining lines, values ahead:

Row | solubility at 16 h (Kinetic solubility) | EC50 [1] | SMILES
16 | < 2 µM | 2.6 µM | Cn1c(Nc2nc3ccccc3o2)nc2cc(C(=O)C(F)(F)F)ccc21 [Example 139, 1-(2-(benzo[d]oxazol-2-ylamino)-1-methyl-1H-benzo[d]imidazol-5-yl)-2,2,2-trifluoroethan-1-one]
17 | 0.5 µM (≈ 0.191 µg/mL) | 0.6 µM | COCCONC(=O)c1ccc2c(c1)nc(Nc1nc3ccccc3o1)n2C [Example 119, 2-(benzo[d]oxazol-2-ylamino)-N-(2-methoxyethoxy)-1-methyl-1H-benzo[d]imidazole-5-carboxamide]
18 | < 2 µM | 0.5 µM | COCCONC(=O)c1ccc2c(c1)nc(Nc1nc3ccc(OC(F)(F)F)cc3o1)n2C [Example 127, N-(2-methoxyethoxy)-1-methyl-2-((6-(trifluoromethoxy)benzo[d]oxazol-2-yl)amino)-1H-benzo[d]imidazole-5-carboxamide]
19 | 18.9 µM (≈ 6.66 µg/mL) | 7.6 µM | Cn1c(Nc2nc3cccnc3o2)nc2cc(C(=O)NCCO)ccc21 [Example 110, N-(2-hydroxyethyl)-1-methyl-2-(oxazolo[5,4-b]pyridin-2-ylamino)-1H-benzo[d]imidazole-5-carboxamide]
20 | < 2 µM | 1.4 µM | Cn1c(Nc2nc3ccc(-c4cscn4)cc3o2)nc2cc(C(=O)NCCOCCO)ccc21 [Example 134, N-(2-(2-hydroxyethoxy)ethyl)-1-methyl-2-((6-(thiazol-4-yl)benzo[d]oxazol-2-yl)amino)-1H-benzo[d]imidazole-5-carboxamide]
21 | 3.5 µM (≈ 1.52 µg/mL) | 0.3 µM | Cn1c(Nc2nc3ccc(C(F)(F)F)cc3o2)nc2cc(C(=O)NOCCO)ccc21 [Example 125, N-(2-hydroxyethoxy)-1-methyl-2-((6-(trifluoromethyl)benzo[d]oxazol-2-yl)amino)-1H-benzo[d]imidazole-5-carboxamide]
22 | 9.2 µM (≈ 3.77 µg/mL) | 5.3 µM | Cn1c(Nc2nc3ccc(C(C)(C)O)cc3o2)nc2cc(C(=O)NCCO)ccc21 [Example 133, N-(2-hydroxyethyl)-2-((6-(2-hydroxypropan-2-yl)benzo[d]oxazol-2-yl)amino)-1-methyl-1H-benzo[d]imidazole-5-carboxamide]

Reference: patent US10766888B1, “HMOX1 inducers” (Mitobridge Inc., priority 2019, dated 2020)
